Test results from PubChem BioAssay (NCI).
Several values for one entry are separate records, joined by “and”; a condition that tells them apart may be missing. Equal values may be shown once.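 Five concentrations, 48 hours, 96-well plates. The concentration for 50% growth inhibition is given as GI50. Definition used: TGI = concentration required for complete inhibition of growth.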

How the values were obtained:
Test in all cases: NCI tumour cell line growth inhibition, 48 h
MALME-3M melanoma = test system: MALME-3M melanoma
M14 melanoma = test system: M14 melanoma
UO-31 renal = test system: UO-31 renal
OVCAR-4 ovarian = test system: OVCAR-4 ovarian
A498 renal = test system: A498 renal
TK-10 renal = test system: TK-10 renal
OVCAR-5 ovarian = test system: OVCAR-5 ovarian
SN12C renal = test system: SN12C renal
NCI/ADR-RES ovarian = test system: NCI/ADR-RES ovarian
HCT-116 colon = test system: HCT-116 colon

Row | Structure (SMILES) | GI50 (MALME-3M melanoma) | TGI (MALME-3M melanoma) | GI50 (M14 melanoma) | TGI (M14 melanoma) | GI50 (UO-31 renal) | TGI (UO-31 renal) | GI50 (OVCAR-4 ovarian) | TGI (OVCAR-4 ovarian) | GI50 (A498 renal) | TGI (A498 renal) | GI50 (TK-10 renal) | TGI (TK-10 renal) | GI50 (OVCAR-5 ovarian) | TGI (OVCAR-5 ovarian) | GI50 (SN12C renal) | TGI (SN12C renal) | GI50 (NCI/ADR-RES ovarian) | TGI (NCI/ADR-RES ovarian) | GI50 (HCT-116 colon) | TGI (HCT-116 colon)
1 | C=C1C(=O)O[C@H]2[C@H]1CC/C(COC(=O)c1ccc(Cl)nc1)=C\CC[C@@]1(C)O[C@@H]21 | 2.12 µM | 4.19 µM | 1.71 µM | 4.02 µM | 1.37 µM | 2.96 µM | 4.49 µM | 18.4 µM | 17.8 µM | 32.7 µM | 2.86 µM | 6.77 µM | 2.95 µM | 9.4 µM | 2.15 µM | 5.42 µM | 5.03 µM | 23.9 µM | 1.45 µM | 2.84 µM
2 | COc1cc2c3c(n(CCCN(C)C)c(=O)c2cc1OC)-c1ccccc1C3=O | 7.38 µM | > 100 µM | 3.83 µM | > 88.2 µM | 16.7 µM | 97.7 µM | 6.68 µM | 53.5 µM | 24.7 µM | > 73.9 µM | 38 µM | > 100 µM | > 91.6 µM | > 100 µM | 7.16 µM | 72.3 µM | 5.94 µM | > 49.1 µM | 3.71 µM | 16.6 µM
3 | Nc1nc(SN=Nc2ccc(S(N)(=O)=O)cc2)c2[nH]cnc2n1 | 1.87 µM | > 60.6 µM | 0.393 µM | 9 µM | 0.455 µM | > 100 µM | 0.581 µM | > 51.1 µM | 1.35 µM | 7.47 µM | 0.448 µM | 23.6 µM | 0.629 µM | > 100 µM | 0.698 µM | > 100 µM | 0.455 µM | > 100 µM | 0.374 µM | 15.1 µM
4 | Cc1cn2c(/C=C3\C(=O)N(C)c4ccc(O)cc43)c(C)nc2s1 | 8.58 µM | > 100 µM | 3.43 µM | 25.1 µM | 9.03 µM | > 100 µM | 20.5 µM | > 100 µM | 21.6 µM | 60.4 µM | 16.1 µM | > 100 µM | 27.8 µM | > 100 µM | 18.3 µM | > 100 µM | 8.27 µM | > 100 µM | 4.04 µM | > 100 µM
5 | COc1cc2c(c(OC)n1)[C@]1(O)[C@H](O)[C@H](CN(C)C)[C@@H](c3ccccc3)[C@]1(c1ccc(C#N)cc1)O2 | 0.0194 µM and 0.019 µM | 0.7 µM and 0.841 µM | 0.0147 µM and 0.0102 µM | 0.193 µM and 0.114 µM | 0.0224 µM and 0.0197 µM | 0.479 µM and 0.319 µM | 0.0371 µM and 0.0251 µM | 3.72 µM and 5.27 µM | 0.0192 µM and 0.0201 µM | 0.0518 µM and 0.0773 µM | 0.0543 µM and 0.0672 µM | 2.9 µM and 6.22 µM | 0.0208 µM and 0.0174 µM | 0.866 µM and 1.43 µM | 0.0156 µM and < 0.0132 µM | 1.94 µM and 1.61 µM | 0.0546 µM and 0.071 µM | 3.89 µM and 2.93 µM | < 0.01 µM | 2.65 µM and 1.7 µM
6 | CC1CCC(=O)C(C(=O)CC2CC(=O)NC(=O)C2)C1 (stereo unspecified) |  | > 100 µM |  | > 100 µM |  | > 100 µM |  | > 100 µM |  | > 100 µM |  | > 100 µM |  | > 100 µM |  | > 100 µM |  | > 100 µM |  | > 100 µM
7 | COc1ccc2c(c1)C(C)Cc1c(ncnc1-n1c(C)nc3ccccc31)N2C (stereo unspecified) | 11.3 µM | 25.2 µM | 2.62 µM | 15.4 µM | 4.59 µM | 20.7 µM | 6.24 µM | 61.8 µM | 2.15 µM | 9.03 µM | 7.28 µM | 45.9 µM | 13 µM | 39.8 µM | 13 µM | 77.6 µM | 2 µM | 19.3 µM | 3.46 µM | 16.2 µM
8 | C[C@]12CC[C@H](O)C[C@H]1CC[C@@H]1[C@@H]2CC[C@]2(C)[C@@H](C3=CC(=O)OC3)CC[C@]12O |  | 0.523 µM |  | 1.6 µM |  | 4.07 µM | 0.0389 µM | 0.226 µM | 0.0591 µM | 0.378 µM |  | 1.59 µM |  | 1.93 µM |  | 0.327 µM |  | 0.573 µM |  | 0.0663 µM
9 | Cc1cc(I)cc(CN(C)CCCN2CCOCC2)c1O | 16.2 µM | 32.9 µM | 16 µM | 32.3 µM | 22.1 µM | 94.4 µM | 63.2 µM | > 100 µM | 19.1 µM | 48.6 µM | 45.6 µM | > 100 µM | 45.3 µM | > 100 µM | > 100 µM | > 100 µM | 67.5 µM | > 100 µM | 24 µM | > 100 µM
10 | COc1cccc(/C(COc2ccc3c(c2)oc(=O)c2cc(OC)ccc23)=N/O)c1 | > 100 µM | > 100 µM | 3.62 µM | > 100 µM | 7.11 µM | 75.6 µM | 18.8 µM | > 100 µM | 3.02 µM | 25.8 µM | 16.5 µM | > 100 µM | > 100 µM | > 100 µM | 14.2 µM | > 100 µM | 3.63 µM | > 100 µM | 4.27 µM | > 100 µM
11 | O=[N+]([O-])c1ccc2c(c1)C(c1ccccc1Cl)=Nc1cn[nH]c1N2 | > 25 µM | > 25 µM | > 25 µM | > 25 µM | 11.1 µM | > 25 µM | 12.5 µM | > 25 µM | 8.27 µM | > 23.3 µM | 15.5 µM | > 25 µM | > 25 µM | > 25 µM | 19.8 µM | > 25 µM | 23.1 µM | > 25 µM | 11.2 µM | > 25 µM
12 | COc1ccc(C(=O)COc2cccc(/C=C3\Oc4ccc5ccccc5c4C3=O)c2)cc1 | 1.74 µM | 5.51 µM | 4.8 µM | 18.1 µM | 6.42 µM | 23.2 µM | 5.08 µM | 17.5 µM | 20.6 µM | 37.1 µM | 12 µM | 24.7 µM | 12.7 µM | 25.3 µM | 1.76 µM | 3.85 µM | 16.7 µM | 33.2 µM | 2.31 µM | 4.94 µM
13 | COc1cc(C2=C(c3cn(C)c4ccccc34)COC2=O)cc(OC)c1OC | 0.474 µM | 14.7 µM | 0.0349 µM | 1.17 µM | 0.226 µM | 6.37 µM | 1.27 µM | > 52.6 µM | 0.0171 µM | 0.109 µM | 0.569 µM | 5.61 µM | 0.479 µM | > 100 µM | 0.593 µM | > 100 µM | 0.0464 µM | 2.07 µM | 0.0396 µM | 
14 | CCOC(=O)CNC(=O)c1ccccc1Nc1ccnc(C(F)(F)F)c1 | 34.1 µM | > 88.8 µM | 38.1 µM | > 74.9 µM | 24.4 µM | > 59.5 µM | 43.7 µM | > 100 µM | 64 µM | > 100 µM | 41.6 µM | > 100 µM | > 51.1 µM | > 100 µM | 36.6 µM | > 79.4 µM | > 71.5 µM | > 100 µM | 30.5 µM | > 69.8 µM
15 | CCC(C)(C)c1ccc(OCCCCCCN2CCNCC2)cc1 | 1.94 µM | 3.6 µM | 1.92 µM | 4.17 µM | 1.93 µM | 4.8 µM | 1.96 µM | 5.03 µM | 6.82 µM | 24.5 µM | 1.8 µM | 3.46 µM | 2.11 µM | 5.39 µM | 3.48 µM | 13.5 µM | 3.11 µM | 8.95 µM | 1.7 µM | 3.12 µM
16 | N=C(N)SCc1cccc(-c2nc3ccccc3c(=O)o2)c1 |  | > 100 µM |  | > 100 µM |  | > 100 µM |  | > 100 µM |  | > 100 µM |  | > 100 µM |  | > 100 µM |  | > 100 µM |  | > 100 µM |  | > 100 µM
17 | O=c1[nH]cnc2cccc(Cl)c12 |  | > 100 µM |  | > 100 µM |  | > 100 µM |  | > 100 µM |  | > 100 µM |  | > 100 µM |  | > 100 µM |  | > 100 µM |  | > 100 µM |  | > 100 µM
18 | CCCCC1(CN2CCOCC2)S/C(=N/c2nc(CC(=O)OCC)cs2)NC1=O (stereo unspecified) | 25.4 µM | > 100 µM | 22.8 µM | 67.3 µM | 33 µM | > 100 µM | 33 µM | > 100 µM | 41.5 µM | > 100 µM | 31.7 µM | 99.1 µM | 35.4 µM | > 100 µM | 35.8 µM | > 100 µM | 40.1 µM | > 100 µM | 22 µM | 63.1 µM
19 | CC(C)S(=O)(=O)c1ccccc1Nc1nc(Nc2cccc(NC(=O)CN)c2)ncc1Cl | 1.22 µM | 3.12 µM | 0.189 µM | 1.49 µM | 0.176 µM | 4.08 µM | 0.336 µM | 5.05 µM | < 0.0242 µM | 0.493 µM | 0.362 µM | 7.86 µM | 0.183 µM | 9.27 µM | 0.21 µM | 6.66 µM | 0.482 µM | 3.6 µM | 0.0403 µM | 0.696 µM
